# System: adult cat fleas
# Experiment: Residual flea efficacy trials on infested cats (Studies A-D)
# Format: in vivo
# Settings: cleansing system 40 mg/kg vs topical at average 225 mg/kg
# Method: The efficacy trials were performed using protocols that required the experimental group of infested cats to be compared with an untreated group of similarly infested animals.
# The cleansing emulsion system formulation, containing 0.5% etofenprox was applied to the wet animals at the rate of 8 grams of cleansing system per kg of animal body weight. The 40% etofenprox topical was applied at the rate of 1 ml per cat for weights up to 5 lbs. (2.2 kg) and 2 ml per cat for those weighing greater than 5 lbs. (2.2 kg). The average rate of etofenprox applied to the cleansing system treated cats was 40 mg etofenprox per kg of body weight. The average rate of etofenprox applied to the topical treated cats was 225 mg per kg of body weight.
# All test animals were infested with 100 unfed adult cat fleas prior to treatment. The cats were examined for the presence of live fleas at 24 to 48 hours after treatment. Residual data points were accomplished by infesting the treated animals at 14, 21 and 28 days after treatment. The animals were then examined for the presence of live fleas 48 hours after each infestation.
smiles,measurement,value
CCOc1ccc(C(C)(C)COCc2cccc(Oc3ccccc3)c2)cc1 [Etofenprox],residual adult flea kill / residual efficacy compared with topical,residual efficacy results similar to 225 mg/kg BW rates required for topical formulations
